Test results from patent US10226453B2, “3-(1H-indol-2-yl)-1H-pyrazolo[4,3-B]pyridines and therapeutic uses thereof” (Samumed, LLC, priority 2015, dated 2019).

How the values were obtained:
[1] = test system: SW480 colon cancer cells; assay: Cell viability assay (CellTiter-Blue), SW480 colon cancer cells; assay type: cell-based; conditions: Homo sapiens, 96 h, four days; for EC50: CellTiter-Blue; for inhibition at 10 µM: given where EC50 >10 μM, read-out: percent inhibition at 10 μM
Summary of the method: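 SW480 cells (~2×10^3/well) exposed four days at 37 °C to 8-point 1:3 dilutions, 10 μM down to 0.0045 μM. Viability from resazurin reduction (CellTiter-Blue, ~3 h, Ex 560/Em 590); EC50 by non-linear regression, or percent inhibition at 10 μM where EC50 exceeds 10 μM.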

[2] = test system: primary human mesenchymal stem cells (hMSCs); assay: Induction of chondrogenesis in primary human mesenchymal stem cells (hMSCs), nodule count; assay type: cell-based; conditions: 144 h, 6 days; for EC50: concentration required to induce 50% levels of chondrogenesis of TGF-β3 control, read-out: Conc (nM) of 50% TGF-β3 activity; for Emax: relative to TGF-β3 (10 ng/mL) positive control, read-out: Max. Activity as % TGF-β3 activity
Method: Representative compounds were screened using primary human mesenchymal stem cells (hMSCs) to determine their ability to induce chondrogenesis (process by which cartilage is developed).
Primary human mesenchymal stem cells (hMSCs) were purchased from Lonza (Walkersville, Md.) and expanded in Mesenchymal Stem Cell Growth Media (Lonza). Cells between passage 3 and 6 were used for the experiments.
Each compound was dissolved in DMSO as a 10 mM stock and used to prepare compound source plates. Serial dilution (1:3, 6-point dose-response curves from 2700 nM to 10 nM) and compound transfer was performed using the ECHO 550 (Labcyte, Sunnyvale, Calif.) into 96-well clear bottom assay plates (Greiner Bio-One) with appropriate DMSO backfill for a final DMSO concentration of 0.03%. hMSCs were plated at 20,000 cells/well in 250 μL/well Incomplete Chondrogenic Induction Medium (Lonza; DMEM, dexamethasone, ascorbate, insulin-transferrin-selenium [ITS supplement], gentamycin-amphotericin [GA-1000], sodium pyruvate, proline and L-glutamine). TGF-β3 (10 ng/mL) was used as a positive control for differentiation while negative control wells were treated with 75 nL DMSO for normalization and calculating EC50 values. Cells were incubated at 37° C. and 5% CO2 for 6 days. To image chondrogenic nodules, the cells were fixed using 4% formaldehyde (Electron Microscopy Sciences), and stained with 2 μg/mL Rhodamine B (Sigma-Aldrich) and 20 μM Nile Red (Sigma-Aldrich) [Johnson K., et. al, A Stem Cell-Based Approach to Cartilage Repair, Science, (2012). 336(6082), 717-721]. The nodules imaged (4 images per well at 4× magnification) by excitation at 531 nm and emission at 625 nm and quantified using the CellInsight CX5 (Thermo Scientific). Number of nodules in each well was normalized to the average of 3 DMSO treated wells on the same plate using Excel (Microsoft Inc.). The normalized averages (fold change over DMSO) of 3 replicate wells for each compound concentration were calculated. Due to solubility limitations of some of the compounds, curve fitting was incomplete leading to inaccurate EC50 determinations.
Using TGF-β3 as a positive control, the concentration of representative compounds required to induce 50% levels of chondrogenesis is reported. In addition, the maximum activity of each compound and the respective dose that each compound reached maximum chondrogenesis activity is reported.

SMILES | EC50 [1] [nM] | EC50 [2] [nM] | inhibition at 10 µM [1] [%] | Emax [2] [%]
CC(C)(C)C(=O)Nc1cncc(-c2ccc3[nH]nc(-c4cc5c(-c6cccc(F)c6)cccc5[nH]4)c3n2)c1 [Compound 8, N-(5-(3-(4-(3-Fluorophenyl)-1H-indol-2-yl)-1H-pyrazolo[4,3-b]pyridin-5-yl)pyridin-3-yl)pivalamide] | > 10000 | – | 20.9 | –
CN(C)Cc1cncc(-c2ccc3[nH]nc(-c4cc5c(-c6ccc(F)cc6)cccc5[nH]4)c3n2)c1 [Compound 41, 1-(5-(3-(4-(4-Fluorophenyl)-1H-indol-2-yl)-1H-pyrazolo[4,3-b]pyridin-5-yl)pyridin-3-yl)-N,N-dimethylmethanamine] | 1680 | 10 | – | 93
Fc1ccc(-c2cccc3[nH]c(-c4n[nH]c5ccc(-c6cncnc6)nc45)cc23)cc1 [Compound 55, 3-(4-(4-Fluorophenyl)-1H-indol-2-yl)-5-(pyrimidin-5-yl)-1H-pyrazolo[4,3-b] pyridine] | > 10000 | – | 18.5 | –
Fc1ccccc1-c1cccc2[nH]c(-c3n[nH]c4ccc(-c5cncc(CN6CCCCC6)c5)nc34)cc12 [Compound 71, 3-(4-(2-Fluorophenyl)-1H-indol-2-yl)-5-(5-(piperidin-1-ylmethyl)pyridin-3-yl)-1H-pyrazolo[4,3-b]pyridine] | 1060 | 100 | – | 96
Fc1ccccc1-c1cccc2[nH]c(-c3n[nH]c4ccc(-c5cncc(CNCc6ccccc6)c5)nc34)cc12 [Compound 80, N-Benzyl-1-(5-(3-(4-(2-fluorophenyl)-1H-indol-2-yl)-1H-pyrazolo[4,3-b]pyridin-5-yl)pyridin-3-yl)methanamine] | > 10000 | – | 18.5 | –
c1cncc(-c2ccc3[nH]nc(-c4cc5c(-c6cccnc6)cccc5[nH]4)c3n2)c1 [Compound 88, 5-(Pyridin-3-yl)-3-(4-(pyridin-3-yl)-1H-indol-2-yl)-1H-pyrazolo[4,3-b] pyridine] | 775 | 900 | – | 386
CN(C)Cc1cncc(-c2ccc3[nH]nc(-c4cc5c(-c6cccnc6)cccc5[nH]4)c3n2)c1 [Compound 97, N,N-Dimethyl-1-(5-(3-(4-(pyridin-3-yl)-1H-indol-2-yl)-1H-pyrazolo[4,3-b]pyridin-5-yl)pyridin-3-yl)methanamine] | 801 | – | – | 36
Nc1cncc(-c2ccc3[nH]nc(-c4cc5c(-c6ccncc6)cccc5[nH]4)c3n2)c1 [Compound 115, 5-(3-(4-(Pyridin-4-yl)-1H-indol-2-yl)-1H-pyrazolo[4,3-b]pyridin-5-yl) pyridin-3-amine] | 218 | 900 | – | 165
Cc1ccncc1-c1ccc2[nH]nc(-c3cc4c(-c5ccncc5)cccc4[nH]3)c2n1 [Compound 117, 5-(4-Methylpyridin-3-yl)-3-(4-(pyridin-4-yl)-1H-indol-2-yl)-1H-pyrazolo [4,3-b]pyridine] | 696 | 900 | – | 703

Now from value to compound, other results behind:

EC50 [1] [nM] | EC50 [2] [nM] | SMILES | inhibition at 10 µM [1] [%] | Emax [2] [%]
1920 | 2700 | c1cc(-c2ccncc2)c2cc(-c3n[nH]c4ccc(-c5cncc(CN6CCCCC6)c5)nc34)[nH]c2c1 [Compound 127, 5-(5-(Piperidin-1-ylmethyl)pyridin-3-yl)-3-(4-(pyridin-4-yl)-1H-indol-2-yl)-1H-pyrazolo[4,3-b]pyridine] | – | 151
> 10000 | – | c1cc(-c2ccncc2)c2cc(-c3n[nH]c4ccc(-c5cncc(CNCC6CCCC6)c5)nc34)[nH]c2c1 [Compound 137, 1-Cyclopentyl-N-((5-(3-(4-(pyridin-4-yl)-1H-indol-2-yl)-1H-pyrazolo[4,3-b]pyridin-5-yl)pyridin-3-yl)methyl)methanamine] | 14.7 | –
> 10000 | – | c1ccc(-c2ccc3[nH]nc(-c4cc5c(-c6ccncc6)cccc5[nH]4)c3n2)nc1 [Compound 140, 5-(Pyridin-2-yl)-3-(4-(pyridin-4-yl)-1H-indol-2-yl)-1H-pyrazolo[4,3-b] pyridine] | 33.4 | –
1180 | 10 | FC1(F)CCN(Cc2cncc(-c3ccc4[nH]nc(-c5cc6c(-c7ccccn7)cccc6[nH]5)c4n3)c2)C1 [Compound 166, 5-(5-((3,3-Difluoropyrrolidin-1-yl)methyl)pyridin-3-yl)-3-(4-(pyridin-2-yl)-1H-indol-2-yl)-1H-pyrazolo[4,3-b]pyridine] | – | 82
> 10000 | – | c1ccc(-c2ccc3[nH]nc(-c4cc5c(N6CCCCC6)cccc5[nH]4)c3n2)nc1 [Compound 196, 3-(4-(Piperidin-1-yl)-1H-indol-2-yl)-5-(pyridin-2-yl)-1H-pyrazolo[4,3-b] pyridine] | 10.4 | –
> 10000 | – | c1cncc(-c2ccc3[nH]nc(-c4cc5ccccc5[nH]4)c3n2)c1 [Compound 256, 3-(1H-Indol-2-yl)-5-(pyridin-3-yl)-1H-pyrazolo[4,3-b]pyridine] | 37.6 | –
> 10000 | – | FC1(F)CCN(Cc2cncc(-c3ccc4[nH]nc(-c5cc6c(-c7cccs7)cccc6[nH]5)c4n3)c2)C1 [Compound 362, 5-(5-((3,3-Difluoropyrrolidin-1-yl)methyl)pyridin-3-yl)-3-(4-(thiophen-2-yl)-1H-indol-2-yl)-1H-pyrazolo[4,3-b]pyridine] | 15.3 | –
965 | – | Nc1cncc(-c2ccc3[nH]nc(-c4cc5ncccc5[nH]4)c3n2)c1 [Compound 507, 5-(3-(1H-Pyrrolo[3,2-b]pyridin-2-yl)-1H-pyrazolo[4,3-b]pyridin-5-yl) pyridin-3-amine] | – | –
> 10000 | – | Fc1cccc(-c2cccc3[nH]c(-c4n[nH]c5ccc(-c6cncc(OCc7ccccc7)c6)nc45)cc23)c1 [Compound 546, 5-(5-(Benzyloxy)pyridin-3-yl)-3-(4-(3-fluorophenyl)-1H-indol-2-yl)-1H-pyrazolo[4,3-b]pyridine] | 18.1 | –
> 10000 | – | c1cc(-c2ccoc2)c2cc(-c3n[nH]c4ccc(-c5cn[nH]c5)nc34)[nH]c2c1 [Compound 711, 3-(4-(Furan-3-yl)-1H-indol-2-yl)-5-(1H-pyrazol-4-yl)-1H-pyrazolo[4,3-b] pyridine] | 12.4 | –
> 10000 | – | c1cc(-c2ccoc2)c2cc(-c3n[nH]c4ccc(-c5cncc(OC6CCCCC6)c5)nc34)[nH]c2c1 [Compound 715, 5-(5-(Cyclohexyloxy)pyridin-3-yl)-3-(4-(furan-3-yl)-1H-indol-2-yl)-1H-pyrazolo[4,3-b]pyridine] | 10.4 | –
> 10000 | – | Oc1cncc(-c2ccc3[nH]nc(-c4cc5c(-c6cccs6)cccc5[nH]4)c3n2)c1 [Compound 737, 5-(3-(4-(Thiophen-2-yl)-1H-indol-2-yl)-1H-pyrazolo[4,3-b]pyridin-5-yl) pyridin-3-ol] | 0 | –
1290 | – | c1cnc2cc(-c3n[nH]c4ccc(-c5cn[nH]c5)nc34)[nH]c2c1 [Compound 1021, 5-(1H-Pyrazol-4-yl)-3-(1H-pyrrolo[3,2-b]pyridin-2-yl)-1H-pyrazolo[4,3-b] pyridine] | – | –
4380 | – | Oc1cncc(-c2ccc3[nH]nc(-c4cc5ncccc5[nH]4)c3n2)c1 [Compound 1031, 5-(3-(1H-Pyrrolo[3,2-b]pyridin-2-yl)-1H-pyrazolo[4,3-b]pyridin-5-yl) pyridin-3-ol] | – | –
